Results on 8 compounds are retold here after US20240059689A1, “PURINE DERIVATIVES AS ANTICANCER AGENTS” (Tango Therapeutics, Inc., priority 2021, published 2024).

For one test, the system named is MDA-MB-436. Kind of test: Viability assay, BRCA1 mutant cell line MDA-MB-436. It counts as cell-based. The following applies: Homo sapiens, MDA-MB-436, viability, BRCA1 mutant MDA-MB-436; read-out: MDA-MB-436 rel IC50. From the text:
(§1) Table 1 also indicates IC50 values in a viability assay for a non-isogenic pair of BRCA1 mutant (column 5-MDA-MB-436) and BRCA1 WT (column 6—HCC1954) cell lines. These values indicate the effect of treatment with compound on cell survival.

The target in a further test is USP1-UAF1 (Homo sapiens, UniProt O94782). As to the kind of experiment: Ubiquitin Rhodamine assay of USP1-UAF1 activity. Type of test: biochemical. The protocol:
Certain compounds of the disclosure were assessed for USP1-UAF1 activity in a Ubiquitin Rhodamine assay as described in Biology Example 1.

Another test concerns monoubiquitinated PCNA. Kind of test: AlphaLISA assay measuring monoubiquitinated PCNA in MDA-MB-436. It counts as cell-based. As to conditions: Homo sapiens, MDA-MB-436, monoubiquitinated PCNA, read-out: Alpha Lisa IC50. From the text: Table 1 also indicates IC50 values for exemplary compounds in an AlphaLISA assay measuring monoubiquitinated PCNA in a BRCA1 mutant cell line (MDA-MB-436; column 7).
(In Alpha technology, singlet oxygen from a donor bead excites a nearby acceptor bead.)

Another test has as its system HCC1954. As to the kind of experiment: Viability assay, BRCA1 WT cell line HCC1954. It counts as cell-based. The following applies: Homo sapiens, HCC1954, viability, read-out: HCC1954 rel IC50.
Description: as §1

Where only a bound is given, the exact number is not on record here.

USP1-UAF1, sequence (O94782 whole entry): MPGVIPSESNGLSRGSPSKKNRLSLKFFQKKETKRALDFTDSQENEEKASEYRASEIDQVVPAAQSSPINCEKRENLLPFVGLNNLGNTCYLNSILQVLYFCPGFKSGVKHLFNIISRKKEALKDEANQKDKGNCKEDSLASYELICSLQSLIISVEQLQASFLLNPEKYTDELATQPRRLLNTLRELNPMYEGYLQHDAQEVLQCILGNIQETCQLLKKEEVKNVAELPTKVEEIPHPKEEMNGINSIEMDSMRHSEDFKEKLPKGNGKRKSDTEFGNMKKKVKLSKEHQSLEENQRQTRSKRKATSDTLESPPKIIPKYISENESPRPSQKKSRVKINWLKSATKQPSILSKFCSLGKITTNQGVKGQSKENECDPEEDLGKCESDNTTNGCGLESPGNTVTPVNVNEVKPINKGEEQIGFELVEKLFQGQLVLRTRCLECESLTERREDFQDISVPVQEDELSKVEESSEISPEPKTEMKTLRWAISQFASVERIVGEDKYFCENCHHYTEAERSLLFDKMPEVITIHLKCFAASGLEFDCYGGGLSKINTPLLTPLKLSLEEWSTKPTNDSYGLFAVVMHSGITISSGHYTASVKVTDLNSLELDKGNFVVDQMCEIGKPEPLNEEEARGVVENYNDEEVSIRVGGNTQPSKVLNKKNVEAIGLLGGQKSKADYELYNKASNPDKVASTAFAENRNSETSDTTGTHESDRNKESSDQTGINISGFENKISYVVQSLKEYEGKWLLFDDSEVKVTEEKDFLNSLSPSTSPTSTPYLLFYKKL
USP1-UAF1, sequence (Q8TAF3 whole entry partner): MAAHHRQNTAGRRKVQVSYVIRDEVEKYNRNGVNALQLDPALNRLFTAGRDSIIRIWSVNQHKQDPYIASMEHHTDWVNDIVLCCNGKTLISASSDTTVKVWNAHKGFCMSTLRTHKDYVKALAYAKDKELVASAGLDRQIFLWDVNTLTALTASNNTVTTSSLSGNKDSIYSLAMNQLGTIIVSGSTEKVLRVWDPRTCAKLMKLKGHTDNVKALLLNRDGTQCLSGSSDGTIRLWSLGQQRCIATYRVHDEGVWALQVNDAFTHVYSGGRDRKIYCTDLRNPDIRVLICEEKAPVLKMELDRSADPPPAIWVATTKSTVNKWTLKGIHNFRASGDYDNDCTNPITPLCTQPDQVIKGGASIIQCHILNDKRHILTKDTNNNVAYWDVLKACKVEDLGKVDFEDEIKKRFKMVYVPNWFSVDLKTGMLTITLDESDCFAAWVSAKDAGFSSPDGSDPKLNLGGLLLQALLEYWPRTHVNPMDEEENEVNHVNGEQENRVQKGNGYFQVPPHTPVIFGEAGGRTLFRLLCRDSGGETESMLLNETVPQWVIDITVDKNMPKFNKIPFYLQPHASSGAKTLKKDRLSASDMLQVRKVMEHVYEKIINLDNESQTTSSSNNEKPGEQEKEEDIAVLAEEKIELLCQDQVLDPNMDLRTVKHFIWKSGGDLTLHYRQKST

The IC50 is the midpoint of a concentration-inhibition curve. Take `CC(C)c1ccccc1-c1nc(C(N)=O)c2c(n1)n(Cc1ccc(-c3nc(C(F)(F)F)cn3C)cc1)c(=N)n2C` [Example A-41, 8-imino-2-(2-isopropylphenyl)-7-methyl-9-(4-(1-methyl-4-(trifluoromethyl)-1H-imidazol-2-yl)benzyl)-8,9-dihydro-7H-purine-6-carboxamide]: the IC50 with MDA-MB-436 lay within 250 to 10000 nM; against USP1-UAF1, 30 to 100 nM; with monoubiquitinated PCNA, 250 to 10000 nM; in the test with HCC1954, 250 to 10000 nM.
In the case of `C=C(C)c1ccc(F)cc1-c1nc(C)c2c(n1)n(Cc1ccc(-c3nc(C(F)(F)F)cn3C)cc1)c(=N)n2C` [Example A-42, 2-(5-fluoro-2-(prop-1-en-2-yl)phenyl)-6,7-dimethyl-9-(4-(1-methyl-4-(trifluoromethyl)-1H-imidazol-2-yl)benzyl)-7,9-dihydro-8H-purin-8-imine], the IC50 in the test with MDA-MB-436 was in the range of 250 to 10000 nM; at USP1-UAF1, 30 to 100 nM; in the test on monoubiquitinated PCNA, 100 to 250 nM; with HCC1954, 250 to 10000 nM.
Regarding `C=C(C)c1ccc(F)cc1-c1nc(C)c2c(n1)n(Cc1ccc(-c3nc(Cl)cn3C)cc1)c(=N)n2C` [Example A-44, 9-(4-(4-chloro-1-methyl-1H-imidazol-2-yl)benzyl)-2-(5-fluoro-2-(prop-1-en-2-yl)phenyl)-6,7-dimethyl-7,9-dihydro-8H-purin-8-imine], the IC50 lay in the range of 250 to 10000 nM with MDA-MB-436, 30 to 100 nM at USP1-UAF1, 250 to 10000 nM with monoubiquitinated PCNA and 250 to 10000 nM in the test on HCC1954.
For the compound `CC(C)c1ccccc1-c1ncc2c(n1)n(CC1CCN(c3nc(C(F)(F)F)cn3C)CC1)c(=N)n2C` [Example B-1, 2-(2-isopropylphenyl)-7-methyl-9-((1-(1-methyl-4-(trifluoromethyl)-1H-imidazol-2-yl)piperidin-4-yl)methyl)-7H-purin-8(9H)-imine], the IC50 in the test on MDA-MB-436 lay within 100 to 250 nM; at USP1-UAF1, 100 to 10000 nM; with monoubiquitinated PCNA, 100 to 250 nM; in the test with HCC1954 it was 250 to 10000 nM.
`CC(C)c1ccccc1-c1ncc2c(n1)n(Cc1ccc(-c3nc(C(F)(F)F)cn3C)cc1)c(=N)n2C` [Example B-2, 2-(2-isopropylphenyl)-7-methyl-9-(4-(1-methyl-4-(trifluoromethyl)-1H-imidazol-2-yl)benzyl)-7H-purin-8(9H)-imine]: the IC50 is under 100 nM in the test on MDA-MB-436, under 30 nM on USP1-UAF1, under 100 nM in the test with monoubiquitinated PCNA and at least 10000 nM with HCC1954.
As for `Cn1cc(C(F)(F)F)nc1-c1ccc(Cn2c(=N)n(C)c3cnc(-c4ccccc4)nc32)cc1` [Example B-3, 7-methyl-9-(4-(1-methyl-4-(trifluoromethyl)-1H-imidazol-2-yl)benzyl)-2-phenyl-7,9-dihydro-8H-purin-8-imine], the IC50 with MDA-MB-436 is 250 to 10000 nM; at USP1-UAF1, 100 to 10000 nM; in the test with monoubiquitinated PCNA it was 250 to 10000 nM; in the test on HCC1954, 250 to 10000 nM.
Turning to `C=C(C)c1ccccc1-c1ncc2c(n1)n(Cc1ccc(-c3nc(C(F)(F)F)cn3C)cc1)c(=N)n2C` [Example B-4, 7-methyl-9-(4-(1-methyl-4-(trifluoromethyl)-1H-imidazol-2-yl)benzyl)-2-(2-(prop-1-en-2-yl)phenyl)-7,9-dihydro-8H-purin-8-imine], the IC50 with MDA-MB-436 was under 100 nM; on USP1-UAF1, under 30 nM; in the test on monoubiquitinated PCNA, under 100 nM; in the test on HCC1954, at least 10000 nM.
Consider `Cn1cc(C(F)(F)F)nc1-c1ccc(Cn2c(=N)n(C)c3cnc(-c4c(Cl)cccc4Cl)nc32)cc1` [Example B-5, 2-(2,6-dichlorophenyl)-7-methyl-9-(4-(1-methyl-4-(trifluoromethyl)-1H-imidazol-2-yl)benzyl)-7,9-dihydro-8H-purin-8-imine], for which the IC50 in the test on MDA-MB-436 is 100 to 250 nM; at USP1-UAF1 it was under 30 nM; in the test with monoubiquitinated PCNA it was 100 to 250 nM; in the test with HCC1954, 250 to 10000 nM.
